Patent publication US3932668A, “Composition for treating swine scour” (priority 1971, dated 1976)
In brackets after ≈: the same amount, converted by molar mass. Entries after “also recorded” stand apart in the source; their conditions may differ. Where a name gives a salt, the structure may show the parent alone.

Key:
El-tor vibrio = test: Antimicrobial spectrum, minimum inhibition concentration; type: cell-based
Escherichia coli 0-16 = test: as above; type: cell-based; conditions: 016
[1] = Absorption, residue and cross resistance as agent for swine scours
Escherichia coli 0-83 = test: Antimicrobial spectrum, minimum inhibition concentration; type: cell-based; conditions: 083
[2] = Growth (increased body weights) of starting chicks raised on mixed feed for 10 weeks; type: in vivo; conditions: for Weight Increase Index: non-added group = 100.0
Excerpt: An amount of 2,3,3-triiodo-allyl-methyl ether as shown in Table 3 was uniformly mixed into one ton of a poultry compound feed. The 2,3,3-triiodo-allyl-methyl ether had been premixed with 100 times its weight of defatted rice bran. Using this mixed feed, 20 starting chicks were raised for 10 weeks.

[3] = Absorption, residue and cross resistance as feed additive (poultry)
[4] = Toxicity (LD50) against mice; type: in vivo; conditions: mouse, in vivo
Excerpt: (§1) As is well known, LD50, or the median lethal dose, is the dose which is fatal to 50% of the test animals, and the larger the LD50 is, the lower the toxicity of the test material is.

mice = test: Toxicity (LD50) against mice; type: in vivo; conditions: intraperitoneal administration
Excerpt: as §1

Salmonella typhi O-901-W = test: Antimicrobial spectrum, minimum inhibition concentration; type: cell-based; conditions: Salmonella enterica
Escherichia coli 0-139 = test: as above; type: cell-based; conditions: 0139
Tricophyton asteroides = test: as above; type: cell-based
Candida albicans Totuka = test: as above; type: cell-based
[5] = test system: Aspergillus fumigatus Saito; test: as above; type: cell-based
[6] = test system: Cryptococcus neoformans 301; test: as above; type: cell-based
[7] = test system: Streptococcus haemolyticus cook; test: as above; type: cell-based
Escherichia coli 0-78 = test: as above; type: cell-based; conditions: 078
Escherichia coli 0-142 = test: as above; type: cell-based; conditions: 0142
Escherichia coli 0-135 = test: as above; type: cell-based; conditions: 0135
[8] = Field clinical test to treat the scours of pigs; type: in vivo; set-up: key to Severity of Conditions, 4th day / Severity of Conditions, 5th day: +++: watery feces; ++: muddy feces; +: soft feces; --: normal feces
Experimental: In use, 2,3,3-triiodo-allyl-methyl ether in crystal form is formed into a fine powder, and either coated with gelatin to a content of about 10% of the ether powder or diluted 10-fold with lactose. It is used in an amount of about 10 mg or more per kilogram of the body weight of the swine in one dosage, and may be increased according to the case. Usually, it is administered twice on the first day, and thereafter, once a day for 3 to 4 days. By this method of treatment, the disease is generally cured in about 5 days.
2,3,3-triiodo-allyl-methyl ether was finely divided in a mortar, and then diluted 10-fold with lactose. A field clinical test was performed using this formulation to treat the scours of 41 pigs. The formulation was administered orally twice on the first day and once a day for the next 3 to 4 days. In this table, the symbols +++, ++, + and -- have the following meanings: […]

[9] = test system: Staphylococcus aureus 209-p; test: Antimicrobial spectrum, minimum inhibition concentration; type: cell-based
Escherichia coli 0-20 = test: as above; type: cell-based; conditions: 020
[10] = Comparative experiment: effect of kanamycin sulfate against scours of swine (control); type: in vivo; set-up: key to Severity of Conditions, 1st day / Severity of Conditions, 2nd day / Severity of Conditions, 3rd day / Severity of Conditions, 4th day / Severity of Conditions, 5th day: +++: watery feces; ++: muddy feces; +: soft feces; --: normal feces; conditions: individual swine (one table line each), single dosage 60-150 mg/Kg
Excerpt: Effect of Kanamycin Sulfate against Scours of […]

[11] = chicks, inferred from body weight at great quantities
[12] = individual pigs (one table line each), oral, single dosage 35-200 mg/Kg, diluted 10-fold with lactose
[13] = chicks, comparative antibiotic, 20 g

SMILES: COCC(I)=C(I)I [2,3,3-triiodo-allyl-methyl ether, methyl-2,3,3-triiodoallylether]
- MIC (El-tor vibrio): 3.12 µg/mL (≈ 6.94 µM)
- MIC (Escherichia coli 0-16): 6.25 µg/mL (≈ 13.9 µM)
- Cross resistance ([1]; agent for swine scours): does not have cross resistance
- Absorption by the digestive tract of swine ([1]; swine): hardly absorbed
- Build-up of residue ([1]; swine): does not cause a build-up of residue
- MIC (Escherichia coli 0-83): 12.5 µg/mL (≈ 27.8 µM)
- Body weight after 10 weeks compared with the group not given the additive ([2]; all groups fed the additive): showed an increase in body weight after 10 weeks
- Body weight, 2nd week ([2]; chicks, 1 g/ton of feed): 120.4
- Body weight, 4th week ([2]; chicks, 1 g/ton of feed): 357.4
- Body weight, 6th week ([2]; chicks, 1 g/ton of feed): 682.4
- Body weight, 8th week ([2]; chicks, 1 g/ton of feed): 1084.4
- Body weight, 10th week ([2]; chicks, 1 g/ton of feed): 1329.7
- Weight Increase Index ([2]; chicks, 1 g/ton of feed): 109.9
- Body weight, 2nd week ([2]; chicks, 5 g/ton of feed): 125.9
- Body weight, 4th week ([2]; chicks, 5 g/ton of feed): 362.1
- Body weight, 6th week ([2]; chicks, 5 g/ton of feed): 706.2
- Body weight, 8th week ([2]; chicks, 5 g/ton of feed): 1099.3
- Body weight, 10th week ([2]; chicks, 5 g/ton of feed): 1408.4
- Weight Increase Index ([2]; chicks, 5 g/ton of feed): 116.4
- Body weight, 2nd week ([2]; chicks, 10 g/ton of feed): 147.6
- Body weight, 4th week ([2]; chicks, 10 g/ton of feed): 388.0
- Body weight, 6th week ([2]; chicks, 10 g/ton of feed): 764.0
- Body weight, 8th week ([2]; chicks, 10 g/ton of feed): 1150.7
- Body weight, 10th week ([2]; chicks, 10 g/ton of feed): 1512.1
- Weight Increase Index ([2]; chicks, 10 g/ton of feed): 125.0
- Body weight, 2nd week ([2]; chicks, 20 g/ton of feed): 120.4
- Body weight, 4th week ([2]; chicks, 20 g/ton of feed): 350.2
- Body weight, 6th week ([2]; chicks, 20 g/ton of feed): 647.3
- Body weight, 8th week ([2]; chicks, 20 g/ton of feed): 990.7
- Body weight, 10th week ([2]; chicks, 20 g/ton of feed): 1303.1
- Weight Increase Index ([2]; chicks, 20 g/ton of feed): 109.7
- Body weight, 2nd week ([2]; chicks, 50 g/ton of feed): 124.3
- Body weight, 4th week ([2]; chicks, 50 g/ton of feed): 359.4
- Body weight, 6th week ([2]; chicks, 50 g/ton of feed): 671.3
- Body weight, 8th week ([2]; chicks, 50 g/ton of feed): 1030.5
- Body weight, 10th week ([2]; chicks, 50 g/ton of feed): 1382.2
- Weight Increase Index ([2]; chicks, 50 g/ton of feed): 114.3
- Body weight, 2nd week ([2]; chicks, 100 g/ton of feed): 128.2
- Body weight, 4th week ([2]; chicks, 100 g/ton of feed): 349.8
- Body weight, 6th week ([2]; chicks, 100 g/ton of feed): 663.1
- Body weight, 8th week ([2]; chicks, 100 g/ton of feed): 946.7
- Body weight, 10th week ([2]; chicks, 100 g/ton of feed): 1223.7
- Weight Increase Index ([2]; chicks, 100 g/ton of feed): 101.2
- Body weight, 2nd week ([2]; chicks, 200 g/ton of feed): 106.5
- Body weight, 4th week ([2]; chicks, 200 g/ton of feed): 343.2
- Body weight, 6th week ([2]; chicks, 200 g/ton of feed): 686.3
- Body weight, 8th week ([2]; chicks, 200 g/ton of feed): 1039.6
- Body weight, 10th week ([2]; chicks, 200 g/ton of feed): 1298.3
- Weight Increase Index ([2]; chicks, 200 g/ton of feed): 107.3
- Effect of great quantities on body weight ([2]; chicks, addition of great quantities): did not cause a decrease in body weight
- Absorption by the digestive tract [2, 11]: little absorbed
- Side-effects [2, 11]: does not have side-effects
- Cross resistance ([3]; feed additive for poultry): does not have cross resistance
- Absorption by the digestive tract of poultry ([3]; poultry): hardly absorbed
- Residue build-up ([3]; poultry): free from residue build-up
- LD50 ([4]; ip, intraperitoneal administration): 50 to 100 mg/kg
- LD50 ([4]; oral administration): > 1000 mg/kg
- selectivity ratio ([4]; times or more as great, read-out: LD50 in oral administration relative to that in intraperitoneal administration): 10 to 20
- LD50 (mice): 50 to 100 mg/kg
- MIC (Salmonella typhi O-901-W): 3.12 µg/mL (≈ 6.94 µM)
- MIC (Escherichia coli 0-139): 12.5 µg/mL (≈ 27.8 µM)
- MIC (Tricophyton asteroides): 1.56 µg/mL (≈ 3.47 µM)
- MIC (Candida albicans Totuka): 3.12 µg/mL (≈ 6.94 µM)
- MIC [5]: 3.12 µg/mL (≈ 6.94 µM)
- MIC [6]: 0.78 µg/mL (≈ 1.73 µM)
- MIC [7]: 12.5 µg/mL (≈ 27.8 µM)
- MIC (Escherichia coli 0-78): 3.12 µg/mL (≈ 6.94 µM)
- MIC (Escherichia coli 0-142): 6.25 µg/mL (≈ 13.9 µM)
- MIC (Escherichia coli 0-135): 3.12 µg/mL (≈ 6.94 µM)
- Effect against the diarrhea of swine ([8]; Table 4, comparison with kanamycin sulfate): superior effect
- Severity of Conditions, 4th day [8, 12]: -- and + and ++
- Severity of Conditions, 5th day [8, 12]: --
- Time in which the disease is generally cured ([8]; swine scours, about 10 mg or more per kg, twice first day, then once a day for 3 to 4 days): about 5 days
- MIC [9]: 6.25 µg/mL (≈ 13.9 µM)
- MIC (Escherichia coli 0-20): 0.78 µg/mL (≈ 1.73 µM)

SMILES: CC1(C)S[C@@H]2[C@H](NC(=O)Cc3ccccc3)C(=O)N2[C@H]1C(=O)O [Procaine Pencillin G]
- Body weight, 2nd week [2, 13]: 127.3
- Body weight, 4th week [2, 13]: 374.6
- Body weight, 6th week [2, 13]: 664.2
- Body weight, 8th week [2, 13]: 1012.9
- Body weight, 10th week [2, 13]: 1324.0
- Weight Increase Index [2, 13]: 109.5

SMILES: NC[C@H]1O[C@H](O[C@H]2[C@H](O)[C@@H](O[C@H]3O[C@H](CO)[C@@H](O)[C@H](N)[C@H]3O)[C@H](N)C[C@@H]2N)[C@H](O)[C@@H](O)[C@@H]1O [Kanamycin Sulfate]
- Evaluation [10]: Cured; also recorded: Deaths
- Severity of Conditions, 1st day [10]: ++ and + and +++
- Severity of Conditions, 2nd day [10]: ++ and + and -- and +++
- Severity of Conditions, 3rd day [10]: + and ++ and --
- Severity of Conditions, 4th day [10]: -- and + and ++
- Severity of Conditions, 5th day [10]: -- and + and ++
